From ChEMBL document CHEMBL4130638, “Discovery of the Polyamine Conjugate with Benzo[ cd]indol-2(1 H)-one as a Lysosome-Targeted Antimetastatic Agent” (J Med Chem, 2018)
Calls of active or inactive are those of the source. The calls are words filed in the database; no cut-off is given here.

Tests used:
HCT-116 [1] = assay: Growth inhibition of human HCT116 cells after 48 hrs by MTT assay; assay type: functional, cell-based; conditions: HCT-116, 48 h
HepG2 = assay: Growth inhibition of human HepG2 cells after 48 hrs by MTT assay; assay type: functional, cell-based; conditions: HepG2, 48 h
SMMC-7721 = assay: Growth inhibition of human SMMC7721 cells after 48 hrs by MTT assay; assay type: functional, cell-based; conditions: SMMC-7721, 48 h
CT26 [2] = assay: Antimigratory activity against mouse CT26 cells after 24 hrs by crystal violet staining based transwell assay; assay type: functional, cell-based
Mus musculus [3] = assay: Toxicity in Balb/c mouse implanted with mouse CT26 cells assessed as increase in heart weight at 1 mg/kg, iv for 7 consecutive days starting from day 8 post tumor implantation; assay type: organism-based; conditions: in vivo
Mus musculus [4] = assay: Toxicity in Balb/c mouse implanted with mouse CT26 cells assessed as increase in heart weight at 1 mg/kg, iv for 14 consecutive days starting from day 8 post tumor implantation; assay type: organism-based; conditions: in vivo
Mus musculus [5] = assay: Toxicity in Balb/c mouse implanted with mouse CT26 cells assessed as increase in liver weight at 1 mg/kg, iv for 7 consecutive days starting from day 8 post tumor implantation; assay type: organism-based; conditions: in vivo
Mus musculus [6] = assay: Toxicity in Balb/c mouse implanted with mouse CT26 cells assessed as increase in liver weight at 1 mg/kg, iv for 14 consecutive days starting from day 8 post tumor implantation; assay type: organism-based; conditions: in vivo
Mus musculus [7] = assay: Toxicity in Balb/c mouse implanted with mouse CT26 cells assessed as increase in spleen weight at 1 mg/kg, iv for 7 consecutive days starting from day 8 post tumor implantation; assay type: organism-based; conditions: in vivo
Mus musculus [8] = assay: Toxicity in Balb/c mouse implanted with mouse CT26 cells assessed as increase in spleen weight at 1 mg/kg, iv for 14 consecutive days starting from day 8 post tumor implantation; assay type: organism-based; conditions: in vivo
HCT-116 [9] = assay: Growth inhibition of human HCT116 cells at 2.5 to 7.5 uM after 24 hrs in presence of spermidine by MTT assay; assay type: functional, cell-based
HCT-116 [10] = assay: Decrease in spermidine level in human HCT116 cells at 2.5 to 10 uM after 24 hrs by G1321A fluorescence detector coupled HPLC analysis; assay type: functional, cell-based
HCT-116 [11] = assay: Decrease in putrescine level in human HCT116 cells at 2.5 to 10 uM after 24 hrs by G1321A fluorescence detector coupled HPLC analysis; assay type: functional, cell-based
[12] = Drug uptake in human HCT116 cell lysosomes at 10 uM after 2 hrs by Lyso-tracker staining based confocal microscopic method; assay type: ADME, subcellular, Lysosome; conditions: hct-116, 2 h
[13] = Drug uptake in lysosomes isolated from human HCT116 cells at 10 uM after 8 hrs by Lyso-tracker staining based confocal microscopic method; assay type: ADME, subcellular, Lysosome; conditions: hct-116, 8 h
HCT-116 [14] = assay: Induction of apoptosis in human HCT116 cells after 24 hrs by acridine orange and ethidium bromide staining based high content screening analysis; assay type: functional, cell-based
HCT-116 [15] = assay: Induction of apoptosis in human HCT116 cells assessed as early apoptotic cells at 10 uM after 24 hrs by annexin V-FITC/propidium iodide staining based flow cytometry (reference value: 4.1%); assay type: functional
HCT-116 [16] = assay: Induction of apoptosis in human HCT116 cells assessed as late apoptotic cells at 10 uM after 24 hrs by annexin V-FITC/propidium iodide staining based flow cytometry (reference value: 2.03%); assay type: functional
HCT-116 [17] = assay: Induction of apoptosis in human HCT116 cells assessed as early apoptotic cells at 10 uM after 24 hrs in presence of autophagy inhibitor 3-MA by annexin V-FITC/propidium iodide staining based flow cytometry (reference value: 4.1%); assay type: functional
HCT-116 [18] = assay: Induction of apoptosis in human HCT116 cells assessed as late apoptotic cells at 10 uM after 24 hrs in presence of autophagy inhibitor 3-MA by annexin V-FITC/propidium iodide staining based flow cytometry (reference value: 2.03%); assay type: functional
CT26 [19] = assay: Induction of apoptosis in mouse CT26 cells assessed as live cells at 10 uM after 24 hrs by annexin V-FITC/propidium iodide staining based flow cytometry (reference value: 89.47%); assay type: functional
CT26 [20] = assay: Induction of apoptosis in mouse CT26 cells assessed as early apoptotic cells at 10 uM after 24 hrs by annexin V-FITC/propidium iodide staining based flow cytometry (reference value: 3.91%); assay type: functional
CT26 [21] = assay: Induction of apoptosis in mouse CT26 cells assessed as live cells at 10 uM after 24 hrs in presence of autophagy inhibitor 3-MA by annexin V-FITC/propidium iodide staining based flow cytometry (reference value: 89.47%); assay type: functional
CT26 [22] = assay: Induction of apoptosis in mouse CT26 cells assessed as late apoptotic cells at 10 uM after 24 hrs in presence of autophagy inhibitor 3-MA by annexin V-FITC/propidium iodide staining based flow cytometry (reference value: 2.26%); assay type: functional
CT26 [23] = assay: Induction of apoptosis in mouse CT26 cells assessed as necrotic cells at 10 uM after 24 hrs in presence of autophagy inhibitor 3-MA by annexin V-FITC/propidium iodide staining based flow cytometry (reference value: 4.36%); assay type: functional
HCT-116 [24] = assay: Induction of apoptosis in human HCT116 cells assessed as late apoptotic cells after 24 hrs by annexin V-FITC/propidium iodide staining based flow cytometry; assay type: functional, cell-based
HCT-116 [25] = assay: Induction of autophagy in human HCT116 cells at 1 to 20 uM after 24 hrs by Lyso staining based flow cytometry; assay type: functional, cell-based
HCT-116 [26] = assay: Induction of autophagy in human HCT116 cells at 5 to 20 uM after 24 hrs in presence of autophagy inhibitor 3-MA by Lyso staining based flow cytometry; assay type: functional, cell-based
CT26 [27] = assay: Induction of autophagy in mouse CT26 cells at 10 to 20 uM after 24 hrs in presence of autophagy inhibitor 3-MA by MDC staining based flow cytometry; assay type: functional, cell-based
CT26 [28] = assay: Induction of autophagy in mouse CT26 cells at 10 to 20 uM after 24 hrs in presence of autophagy inhibitor 3-MA by Lyso staining based flow cytometry; assay type: functional, cell-based
HCT-116 [29] = assay: Induction of autophagy in human HCT116 cells assessed as accumulation of LC3-2 after 24 hrs by Western blot method; assay type: functional, cell-based
HCT-116 [30] = assay: Upregulation of LAMP1 protein expression in human HCT116 cells at 10 uM after 24 hrs by Western blot method; assay type: functional, cell-based
HCT-116 [31] = assay: Upregulation of LAMP2 protein expression in human HCT116 cells at 10 uM after 24 hrs by Western blot method; assay type: functional, cell-based
HCT-116 [32] = assay: Downregulation of cathepsin-L protein expression in human HCT116 cells after 24 hrs by Western blot method; assay type: functional, cell-based
[33] = target: Serine/threonine-protein kinase mTOR (Homo sapiens) (UniProt P42345); assay: Inhibition of mTOR phosphorylation in human HCT116 cells after 24 hrs by Western blot method; assay type: cell-based
HCT-116 [34] = assay: Upregulation of cleaved caspase-3 protein expression in human HCT116 cells up to 10 uM after 24 hrs in presence of autophagy inhibitor 3-MA by Western blot method; assay type: functional, cell-based
HCT-116 [35] = assay: Downregulation of Bcl2 protein expression in human HCT116 cells up to 10 uM after 24 hrs in presence of autophagy inhibitor 3-MA by Western blot method; assay type: functional, cell-based
HCT-116 [36] = assay: Upregulation of p53 protein expression in human HCT116 cells up to 10 uM after 24 hrs in presence of autophagy inhibitor 3-MA by Western blot method; assay type: functional, cell-based

Question: Which IC50 (HCT-116 [1]) does the source give for Cl.Cl.Cl.NCCCCNCCCCNCCCCN1C(=O)c2cccc3cccc1c23 here?
Answer: 5.72 µM

Question: What about the IC50 (HepG2) of the same compound?
Answer: 5.28 µM

Question: And the IC50 (SMMC-7721)?
Answer: 13.5 µM

Question: What about the Activity (CT26 [2]) of the same compound?
Answer: Dose-dependent effect

Question: What about the Activity (Mus musculus [3]) of the same compound?
Answer: Toxic

Question: And the Activity (Mus musculus [4])?
Answer: Toxic

Question: And the Activity (Mus musculus [5])?
Answer: Toxic

Question: What about the Activity (Mus musculus [6]) of the same compound?
Answer: Toxic

Question: What about the Activity (Mus musculus [7]) of the same compound?
Answer: Toxic

Question: And the Activity (Mus musculus [8])?
Answer: Toxic

Question: And the “growth inhibition (GI)” value (HCT-116 [9])?
Answer: inactive

Question: And the Activity (HCT-116 [10])?
Answer: Active

Question: And the Activity (HCT-116 [11])?
Answer: inactive

Question: What about the Drug uptake [12] of the same compound?
Answer: Active

Question: And the Drug uptake [13]?
Answer: Active

Question: And the Activity (HCT-116 [14])?
Answer: Dose-dependent effect

Question: What about the Activity (HCT-116 [15]) of the same compound?
Answer: 31.31%

Question: What about the Activity (HCT-116 [16]) of the same compound?
Answer: 27.58%

Question: What about the Activity (HCT-116 [17]) of the same compound?
Answer: 17.3%

Question: And the Activity (HCT-116 [18])?
Answer: 18.92%

Question: What about the Activity (CT26 [19]) of the same compound?
Answer: 30.85%

Question: What about the Activity (CT26 [20]) of the same compound?
Answer: 42.37%

Question: What about the Activity (CT26 [21]) of the same compound?
Answer: 61.63%

Question: What about the Activity (CT26 [22]) of the same compound?
Answer: 6.59%

Question: And the Activity (CT26 [23])?
Answer: 4.42%

Question: What about the Activity (HCT-116 [24]) of the same compound?
Answer: Dose-dependent effect

Question: And the Activity (HCT-116 [25])?
Answer: Active

Question: What about the Activity (HCT-116 [26]) of the same compound?
Answer: inactive

Question: And the Activity (CT26 [27])?
Answer: inactive

Question: And the Activity (CT26 [28])?
Answer: inactive

Question: What about the Activity (HCT-116 [29]) of the same compound?
Answer: Dose-dependent effect

Question: And the Activity (HCT-116 [30])?
Answer: Active

Question: And the Activity (HCT-116 [31])?
Answer: Active

Question: What about the Activity (HCT-116 [32]) of the same compound?
Answer: Dose-dependent effect

Question: And the inhibition [33]?
Answer: Dose-dependent effect

Question: What about the Activity (HCT-116 [34]) of the same compound?
Answer: inactive

Question: What about the Activity (HCT-116 [35]) of the same compound?
Answer: inactive

Question: What about the Activity (HCT-116 [36]) of the same compound?
Answer: inactive
